Experimental data as given in patent publication US20240368133A1, “Compounds for the Treatment of Pain, in Particular, Neuropathic Pain, and/or Other Diseases or Disorders that are Associated with AT2R and/or AT2R Mediated Signaling” (Confo Therapeutics N.V., priority 2021, published 2024).

What was measured:
human AT2R fused to Cb23 = human AT2R fused to Cb23 (Homo sapiens, UniProt P50052); assay: Radioligand binding assay, displacement of 125I-[Sar1, Ile8]-Angiotensin II, hAT2R Cb23; conditions: displacement of 125I-[Sar1, Ile8]-Angiotensin II, human AT2R fused to Cb23, HEK-293 cell membrane preparations; read-out: Binding affinity on hAT2R_Cb23 IC50
In short: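 Membranes from HEK-293 cells expressing human AT2R fused to Cb23 were incubated with 0.05 nM 125I-[Sar1, Ile8]-Angiotensin II in 100 μL buffer (50 mM Tris, 5 mM MgCl2, 1 mM EDTA, 0.1% BSA, pH 7.4) for one hour at 25° C. Ligands were tested as eight-point dose-response curves in duplicate, with C21 and Angiotensin II as references.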

human AT1R = human AT1R (Homo sapiens (Human), UniProt P30556); assay: Counterscreen radioligand binding assay, displacement of 125I-[Sar1, Ile8]-Angiotensin II, hAT1R WT; conditions: for inhibition at 1 µM / inhibition at 10 µM: 125I-[Sar1, Ile8]-Ang II, semi-quantitative score; for inhibition at 1 µM: compound at 1 μM, read-out: % Displaced radioligand at 1 μM; for inhibition at 10 µM: compound at 10 μM, read-out: % Displaced radioligand at 10 μM; for IC50: HEK-293 cell membranes, read-out: Binding affinity On hAT1R IC50
In short: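 Compounds displaced 0.05 nM 125I-[Sar1, Ile8]-Ang II from human AT1R in HEK-293 membranes (1 h, 25° C; Tris/MgCl2/EDTA/BSA buffer, pH 7.4). Readout was filtration and scintillation counting, with non-specific binding set by 10 μM [Sar1]-Ang II. Values are % displacement at 1 μM and […], or IC50 from eight-point four-parameter fits.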

human AT2R fused to Cb23, sequence (P50052 whole entry, looked up, the tested form may be a part): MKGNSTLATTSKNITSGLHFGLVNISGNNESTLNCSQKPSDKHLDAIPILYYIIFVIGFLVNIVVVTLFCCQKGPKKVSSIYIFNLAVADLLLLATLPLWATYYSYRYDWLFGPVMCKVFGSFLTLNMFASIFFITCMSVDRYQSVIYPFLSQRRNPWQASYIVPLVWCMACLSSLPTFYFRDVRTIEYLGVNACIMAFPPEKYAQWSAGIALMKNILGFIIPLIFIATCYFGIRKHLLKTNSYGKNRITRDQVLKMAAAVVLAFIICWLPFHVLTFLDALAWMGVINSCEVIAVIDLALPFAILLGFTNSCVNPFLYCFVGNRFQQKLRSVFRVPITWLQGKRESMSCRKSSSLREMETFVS
human AT1R, sequence (P30556 whole entry): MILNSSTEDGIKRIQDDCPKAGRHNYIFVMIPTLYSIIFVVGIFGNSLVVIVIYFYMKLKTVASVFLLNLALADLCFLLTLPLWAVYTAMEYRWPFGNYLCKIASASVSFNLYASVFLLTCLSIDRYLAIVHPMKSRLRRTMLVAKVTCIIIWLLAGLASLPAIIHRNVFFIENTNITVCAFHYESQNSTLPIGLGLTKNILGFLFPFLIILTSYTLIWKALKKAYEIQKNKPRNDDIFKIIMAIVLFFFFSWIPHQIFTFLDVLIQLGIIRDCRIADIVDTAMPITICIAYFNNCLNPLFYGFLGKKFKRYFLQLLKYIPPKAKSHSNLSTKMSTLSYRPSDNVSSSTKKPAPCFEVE

Structure (SMILES) | IC50 (human AT2R fused to Cb23) | inhibition at 1 µM (human AT1R) | inhibition at 10 µM (human AT1R) | IC50 (human AT1R)
c1ccc2sc(CN3CCN(c4cc(OCC5CC5)ccc4-c4nn[nH]n4)CC3)nc2c1 [Compound A-54, 2-[[4-[5-(cyclo-propylmethoxy)-2-(2H-tetrazol-5-yl)-phenyl]piperazin-1-yl]methyl]-1,3-benzothiazole] | 2070 nM | < 30% | < 30% | 31000 nM
CCS(=O)(=O)NC(=O)c1ccc(C(C)C)cc1N1CCN(Cc2nc3ccccc3s2)CC1 [Compound A-34, 2-[4-(1,3-benzo-thiazol-2-ylmethyl)-piperazin-1-yl]-N-ethylsulfonyl-4-iso-propyl-benzamide] | 484 nM | < 30% | < 30% | 
CC(C)Cc1cc(F)c(-c2nn[nH]n2)c(N2CCN(Cc3nc4ccccc4c(=O)[nH]3)CC2)c1 [Compound A-154, 2-[[4-[3-fluoro-5-isobutyl-2-(2H-tetrazol-5-yl)phen-yl]piperazin-1-yl]-methyl]-3H-quin-azolin-4-one] | 160 nM | < 30% | < 30% | 
CCNc1ccc(-c2nn[nH]n2)c(N2CCN(Cc3nc4ccccc4s3)CC2)c1 [Compound A-59, 3-[4-(1,3-benzothi-azol-2-ylmethyl)-piperazin-1-yl]-N-ethyl-4-(2H-tetrazol-5-yl)aniline] | 4750 nM | < 30% | < 30% | 
CC(C)Cc1cc(F)c(-c2nn[nH]n2)c(N2CCN(C(=O)c3cccnn3)CC2)c1 [Compound A-213, [4-[3-fluoro-5-isobutyl-2-(2H-tetrazol-5-yl)phenyl]piperazin-1-yl]-pyridazin-3-yl-methanone] | 389 nM | < 30% | < 30% | 
CCc1ccc(C(=O)NS(=O)(=O)CC)c(N2CCN(Cc3nc4ccccc4s3)CC2)c1 [Compound A-33, 2-[4-(1,3-benzothiazol-2-ylmethyl)piperazin-1-yl]-4-ethyl-N-ethylsulfonyl-benzamide] | 3070 nM | < 30% | < 30% | 
Cc1cnnc(CN2CCN(c3cc(CC(C)C)ccc3-c3nn[nH]n3)CC2)c1 [Compound A-112, 3-[[4-[5-isobutyl-2-(2H-tetrazol-5-yl)phenyl]piperazin-1-yl]methyl]-5-methyl-pyridazine] | 697 nM | < 30% | < 30% | 
CCc1cc(OC(C)C)cc(N2CCN(Cc3cccnn3)CC2)c1-c1nn[nH]n1 [Compound A-159, 3-[[4-[3-ethyl-5-isopropoxy-2-(2H-tetrazol-5-yl)phen-yl]piperazin-1-yl]-methyl]pyridazine] | 3080 nM | < 30% | < 30% | 
CC(C)Cc1cc(F)c(-c2nn[nH]n2)c(N2CC3CC2CN3Cc2cccnn2)c1 (centres unmarked) [Compound A-189, 2-[3-fluoro-5-isobutyl-2-(2H-tetrazol-5-yl)phen-yl]-5-(pyridazin-3-ylmethyl)-2,5-di-azabicyclo[2.2.1]-heptane] | 2650 nM | < 30% | < 30% | 
c1ccc(-c2nn[nH]n2)c(CN2CCN(c3nc4ccccc4s3)CC2)c1 [Compound A-03, 2-[4-[[2-(2H-tetrazol-5-yl)phen-yl]-methyl]piper-azin-1-yl]-1,3-benzothiazole] | 15900 nM | < 30% | < 30% | 
Cc1cnc(CN2CCN(c3cc(CC(C)C)cc(F)c3-c3nn[nH]n3)CC2C)s1 (centres unmarked) [Compound A-222, 2-[[4-[3-fluoro-5-isobutyl-2-(2H-tetrazol-5-yl)phenyl]-2-methyl-piperazin-1-yl]methyl]-5-methyl-thiazole] | 9.47 nM | < 30% | < 30% | 
Cc1noc(C)c1CN1CCN(c2cc(CC(C)C)ccc2-c2nn[nH]n2)CC1 [Compound A-101] | 4480 nM | < 30% | < 30% | 
CC(C)Cc1cc(F)c(-c2nn[nH]n2)c(N2CCN(Cc3cccnn3)CC2)c1 [Compound A-164, 3-[[4-[3-fluoro-5-isobutyl-2-(2H-tetrazol-5-yl)phen-yl]piperazin-1-yl]-methyl]pyridazine] | 1300 nM | < 30% | < 30% | 
CCc1cc(OC(C)C)cc(N2CCN(Cc3nc4ccccc4s3)CC2)c1-c1nn[nH]n1 [Compound A-120, 2-[[4-[3-ethyl-5-iso-propoxy-2-(2H-tetrazol-5-yl)phen-yl]piperazin-1-yl]-methyl]-1,3-benzo-thiazole] | 459 nM | < 30% | < 30% | 
O=c1[nH]c(CN2CCN(c3cc(C4CC4)ccc3-c3nn[nH]n3)CC2)nc2ccccc12 [Compound A-28, 2-[[4-[5-cyclopropyl-2-(2H-tetrazol-5-yl)phenyl]piperazin-1-yl]methyl]-3H-quinazolin-4-one] | 3560 nM | < 30% | < 30% | 
CC(C)Cc1cc(C2CC2)c(-c2nn[nH]n2)c(N2CCN(Cc3cccnn3)CC2)c1 [Compound A-169, 3-[[4-[3-cycloprop-yl-5-isobutyl-2-(2H-tetrazol-5-yl)phen-yl]piperazin-1-yl]-methyl]pyridazine] | 25.3 nM | < 30% | < 30% | 
FC(F)COc1ccc(-c2nn[nH]n2)c(N2CCN(Cc3nc4ccccc4s3)CC2)c1 [Compound A-55, 2-[[4-[5-(2,2-difluoroethoxy)-2-(2H-tetrazol-5-yl)-phenyl]piperazin-1-yl]methyl]-1,3-benzothiazole] | 2270 nM | < 30% | < 30% | 39700 nM
C/C=C/c1ccc(-c2nn[nH]n2)c(N2CCN(Cc3nc4ccccc4n3C)CC2)c1 [Compound A-18, 1-methyl-2-[[4-[5-[(E)-prop-1-enyl]-2-(2H-tetrazol-5-yl)-phenyl]piperazin-1-yl]methyl]benz-imidazole] | 3850 nM | < 30% | < 30% | 
COc1ccc(-c2nn[nH]n2)c(N2CCN(Cc3nc4ccccc4n3C)CC2)c1 [Compound A-22, 2-[[4-[5-methoxy-2-(2H-tetrazol-5-yl)phenyl]piperazin-1-yl]methyl]-1-methyl-benzimidazole] | 19700 nM | < 30% | < 30% | 

The remaining lines, values ahead:

IC50 (human AT2R fused to Cb23) | inhibition at 1 µM (human AT1R) | inhibition at 10 µM (human AT1R) | IC50 (human AT1R) | Structure (SMILES)
681 nM | < 30% | < 30% | 55200 nM | Cc1cnc(CN2CCN(c3c(-c4nn[nH]n4)ccc(CC(C)C)c3F)CC2)s1 [Compound A-219, 2-[[4-[2-fluoro-3-isobutyl-6-(2H-tetrazol-5-yl)phen-yl]piperazin-1-yl]-methyl]-5-methyl-thiazole]
293 nM | < 30% | < 30% |  | CC(C)Oc1cc(C2CC2)c(-c2nn[nH]n2)c(N2CCN(Cc3nc4ccccc4s3)CC2)c1 [Compound A-122, 2-[[4-[3-cycloprop-yl-5-isopropoxy-2-(2H-tetrazol-5-yl)-phenyl]piperazin-1-yl]methyl]-1,3-benzothiazole]
959 nM | < 30% | < 30% | 37700 nM | CCCCOC(=O)NS(=O)(=O)c1ccc(C)cc1N1CCN(Cc2nc3ccccc3n2C)CC1 [Compound A-11, butyl N-[4-methyl-2-[4-[(1-methylbenzimidazol-2-yl)methyl]piperazin-1-yl]phenyl]sulfonylcarbamate]
1080 nM | < 30% | < 30% |  | CC(C)Cc1cc(F)c(-c2nn[nH]n2)c(N2CCN(Cc3ncc(F)cc3Cl)CC2)c1 [Compound A-206, 1-[(3-chloro-5-fluoro-2-pyridyl)-methyl]-4-[3-fluoro-5-isobutyl-2-(2H-tetrazol-5-yl)phen-yl]piperazine]
2910 nM | < 30% | 30 to 50% | 13500 nM | CC(C)Cc1ccc(-c2nn[nH]n2)c(N2CCN(Cc3cc4ccccc4n(C)c3=O)CC2)c1 [Compound A-77, 3-[[4-[5-isobutyl-2-(2H-tetrazol-5-yl)-phenyl]piperazin-1-yl]methyl]-1-methyl-quinolin-2-one]
74.4 nM | < 30% | < 30% |  | Cc1cc(C2CC2)cc(N2CCN(Cc3nc4ccccc4s3)CC2)c1-c1nn[nH]n1 [Compound A-127, 2-[[4-[5-cycloprop-yl-3-methyl-2-(2H-tetrazol-5-yl)phen-yl]piperazin-1-yl]-methyl]-1,3-benzo-thiazole]
379 nM | < 30% | < 30% |  | CC(C)Cc1cc(F)c(-c2nn[nH]n2)c(N2CCN(Cc3ncc(Cl)cc3F)CC2)c1 [Compound A-205, 1-[(5-chloro-3-fluoro-2-pyridyl)methyl]-4-[3-fluoro-5-isobutyl-2-(2H-tetrazol-5-yl)phenyl]piperazine]
6980 nM | < 30% | < 30% |  | CC(C)Cc1ccc(-c2nn[nH]n2)c(N2CCN(Cc3cnccn3)CC2)c1 [Compound A-93, 2-[[4-[5-isobutyl-2-(2H-tetrazol-5-yl)-phenyl]piperazin-1-yl]methyl]pyr-azine]
